Reference: the METLIN SMRT retention time set (Domingo-Almenara et al. 2019)

Test: gradient 5% acetonitrile 3 min, to 50% in 2 min, to 85% in 15 min, held 3 min, 100 µL/min
Conditions: column: Zorbax Extend-C18 2.1 x 50 mm; eluents: water / acetonitrile, 0.1% formic acid
Summary of the method: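 Over 3 months, pure standards in mixtures of ~100 molecules were run by HPLC coupled to a quadrupole time-of-flight mass spectrometer in positive and negative ionization mode. The column was a Zorbax Extend-C18 (2.1 × 50 mm, 1.8 μm) at 100 μL/min, eluted with water and acetonitrile each holding 0.1% formic acid, with 40 μL dead and 900 μL dwell volumes. Retention time was determined from adduct peaks chosen by software and checked manually.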

Compound | RP-LC retention time
CC(C)CCNC(=O)C1(C)CN(S(=O)(=O)c2ccccc2)CC(=O)N1c1ccc(F)cc1 (stereo not drawn) | 959 s
CSc1ccc(CNS(=O)(=O)c2cc3c(s2)CCN(C(=O)C2CC2)C3)cc1 | 872 s
Cc1c(Cl)cccc1N1C(=O)CN(S(C)(=O)=O)CC1(C)C(=O)NC1CCCCCC1 (stereo not drawn) | 938 s
Cc1cc(NC(=O)C2CCN(C(=O)COc3ccccc3F)CC2)no1 | 696 s
Cc1nnc(-c2cc(NC(=O)Cc3c[nH]c4ccccc34)c(C)s2)o1 | 794 s
CCOc1ccc(C(C)NC(=O)c2cn3c(n2)CN(CC(C)C)CC3)cc1 (stereo not drawn) | 640 s
COc1ccc(NC(=O)c2cn(-c3cc(N(C)C)ncn3)cn2)c(OC)c1 | 842 s
CN1CCn2cc(S(=O)(=O)Nc3cccc(F)c3)cc2C1=O | 687 s
O=C(NC1CC1)C1CCCN(S(=O)(=O)c2cc(-c3noc(C4CCCC4)n3)cs2)C1 (stereo not drawn) | 972 s
CCCn1cc(S(=O)(=O)NCc2cccc(F)c2)c2cccnc21 | 936 s
Cc1nnc(NC(=O)C2CCN(C(=O)c3ccccc3F)CC2)s1 | 624 s
COc1ccc(NC(=O)CSc2ccc(N3CCCC(C(=O)NC4CC4)C3)nn2)cc1 (stereo not drawn) | 617 s
O=C(CC1CCCC1)N1[C@H]2CC[C@@H]1c1cnc(-c3ccc(F)cc3)nc1C2 | 1060 s
O=C(NCc1ccc(F)cc1)C1CCCN(c2nc3ccccc3n(Cc3ccccc3)c2=O)C1 (stereo not drawn) | 1140 s
O=C(NCc1csc(-c2ccccc2)n1)C1CCN(S(=O)(=O)c2cccs2)CC1 | 872 s
CCc1cccc(NS(=O)(=O)c2c(C)sc(C)c2-c2cc(C)[nH]n2)c1 | 1130 s
COc1cccc(CC(=O)N2CCC3(CC2)N=C(c2ccc(Cl)cc2)NO3)c1 | 922 s
Cc1ccc(N2C(=O)Cn3cccc3C2C(=O)NC2CCCCC2C)cc1 (stereo not drawn) | 947 s
O=C(c1ccco1)N1CCN(c2ccc(-c3noc(C4CC4)n3)cc2)CC1 | 864 s
CC1CCN(C(=O)C2c3ccccc3CCN2CC(=O)NCc2cccc(Cl)c2)CC1 (stereo not drawn) | 973 s
CCc1cc(C(=O)Nc2ccc(C)c(C)c2)nc2ccnn12 | 1150 s
CCC(C)NC(=O)CCNc1c(-c2ccc(C)cc2)nc2cnccn12 (stereo not drawn) | 672 s

Compound | RP-LC retention time
CCc1ccc(C(C)NC(=O)c2ccnc3c(NC(C)=O)cccc23)cc1 (stereo not drawn) | 896 s
Cc1ccc(NC(=O)N2CCCC2c2nc(-c3ccccc3C)no2)c(Cl)c1 (stereo not drawn) | 610 s
CCOc1ccc(NC(=O)CCC2CCCN(c3cc(NC4CC4)ncn3)C2)cc1 (stereo not drawn) | 692 s
CCOCN(C(=O)Cn1c(CC)nc2ccccc21)c1c(C)cccc1CC | 780 s
CCOC(=O)c1cc(-c2ccc(S(=O)(=O)N3CCN(c4ccccn4)CC3)s2)on1 | 809 s
Cc1ccc(-c2cc(C(=O)N3CCC(NC(=O)c4cccs4)CC3)[nH]n2)c(C)c1 | 763 s
Cc1nc(-c2csc(S(=O)(=O)N3CCC(C(=O)NCCN4CCOCC4)CC3)c2)no1 | 596 s
CC(=O)N1CCc2cc(N3CC(C(=O)NCc4cccnc4)CC3=O)ccc21 (stereo not drawn) | 557 s
CO[C@H]1CN(C2CCN(Cc3cn(C(C)C)c4ccccc34)CC2)[C@H]1c1ccncc1 | 590 s
O=C(Cn1nc2c3sc(N4CCCC4)nc3ncn2c1=O)Nc1ccc(F)cc1 | 718 s
CCCCn1cc(S(=O)(=O)Nc2cc(C)ccc2F)c2cccnc21 | 754 s
CCNc1cc(N2CCC(CCC(=O)NCc3cccc(Cl)c3)CC2)ncn1 | 678 s
Cc1oc(-c2ccc(NC(=O)CCc3ccccc3)cc2)nc1Cn1cccn1 | 897 s
CCC(=O)N1c2ccccc2NC2=C(C(=O)CC(C)(C)C2)C1c1ccc(C#N)cc1 (stereo not drawn) | 797 s
COCc1noc([C@@H]2CC(F)(F)CN2C(=O)c2coc(C)n2)n1 | 717 s
CCCNC(=O)C1CCN(c2ccc(SCC(=O)Nc3cc(C)cc(C)c3)nn2)CC1 | 685 s
Cc1nn(-c2nc(CC(=O)N(CCO)Cc3ccccc3)cs2)c(C)c1Cl | 943 s
Cc1cccc(Nc2nc(C)c(C(=O)NC3CCN(Cc4ccccc4)CC3)s2)n1 | 645 s
Cc1ccc(CNC(=O)C2(C)CCN(C(=O)Nc3ccc(C)cc3Cl)CC2)cc1 | 956 s
OCCN1CCN(CCCN2c3ccccc3C=Cc3ccccc32)CC1 | 692 s
Cc1ccc2c(Nc3ccc(S(N)(=O)=O)cc3)c(C(=O)N3CCCCC3C)cnc2n1 (stereo not drawn) | 590 s
O=C(NCC(c1ccco1)N1CCN(c2ccc(F)cc2)CC1)c1ccsc1 (stereo not drawn) | 603 s

Compound | RP-LC retention time
CN(C)c1nc2ncn3c(=O)n(CC(=O)NC4CCc5ccccc54)nc3c2s1 (stereo not drawn) | 864 s
CCN1C(=O)c2c(C(=O)NCCCc3ccccc3)ncn2CC1(C)C(=O)NC1CCCC1 (stereo not drawn) | 822 s
O=C(Cc1cccc(Cl)c1)Nc1ccsc1-c1nnc(C2CC2)o1 | 1240 s
COc1cc(-c2nc3nc(C)cc(C)n3c2Nc2ccccc2)ccc1O | 647 s
Clc1cccc(-c2nnc(-c3nc(NC4CCCC4)c4ccccc4n3)o2)c1 | 1170 s
CCOC(=O)c1c(N2C(=O)C3C4C=CC(O4)C3C2=O)sc2c1CCCC2 (stereo not drawn) | 872 s
COc1cc(F)ccc1-c1ccnc2nc(-c3cccs3)nn12 | 918 s
O=C(COc1ccc(F)cc1)NCC1CCOCC1 | 677 s
O=C(NC1CC1)c1nc(-c2ccncc2)cs1 | 574 s
Cc1ccc(C2Cn3nnc(-c4nc(-c5ccc(C(F)(F)F)cc5)no4)c3CO2)c(C)c1 (stereo not drawn) | 1300 s
CC1(C(=O)NC2CCCCC2)CN(S(=O)(=O)c2ccccc2)CC(=O)N1c1ccccc1F (stereo not drawn) | 932 s
CCOC(=O)Cc1csc(NC(=O)CCS(=O)(=O)c2ccccc2)n1 | 844 s
COCC1CN(C2CCC2)CC12CCN(C(=O)C1CCN(C(C)=O)CC1)CC2 (stereo not drawn) | 561 s
CC(C)NC(=O)N1CCC(N2C(=O)C3(CCCC3)C2c2ccccc2)CC1 (stereo not drawn) | 837 s
Cc1ccc(Cl)cc1NC(=O)N1CCCC1c1nc(-c2ccccc2C)no1 (stereo not drawn) | 1120 s
COc1ccc(CCNS(=O)(=O)c2cccc3cccnc23)cc1OC | 745 s
CCCN(Cc1ccc(OC)cc1)Cc1cc(=O)n2cc(C)ccc2n1 | 633 s
O=c1n(Cc2ccc(Cl)cc2)nc2c(S(=O)(=O)N3CCCCC3)cccn12 | 919 s
O=C(NCCc1ccco1)c1ccc2nc(CCc3ccccc3)oc2c1 | 930 s
Cc1ccc(S(=O)(=O)N2CCc3c(c(-c4nnc(-c5ccccc5)o4)nn3C)C2)cc1Cl | 1070 s
Cc1cccc(S(=O)(=O)N2CCCC(Cn3c(C4CC4)nc4cccnc43)C2)c1 (stereo not drawn) | 791 s
Cc1ccc(-c2noc(CSc3nc4cc5c(cc4c(=O)n3C3CC3)OCO5)n2)cc1 | 874 s

Compound | RP-LC retention time
COc1ccc(-n2ncc3c(=O)n(Cc4nc(-c5ccc(C)c(C)c5)no4)cnc32)cc1 | 1080 s
Cc1noc(-c2nn(C)c3c2CN(C(=O)NCc2ccccc2)CC3)n1 | 761 s
CCn1c(CCC(=O)NCc2ccc(F)c(Cl)c2)nc2c(C)cccc2c1=O | 916 s
CC(Oc1ccc(-c2cnc3ccccc3n2)cc1)C(=O)N1CCOCC1 (stereo not drawn) | 751 s
Cc1ccc2c(c1)NC(=O)c1cc(NS(=O)(=O)c3ccccc3F)ccc1O2 | 571 s
C=CCN1C(=O)COc2ccc(-c3nc(NC(=O)C(C)(C)C)sc3C)cc21 | 1010 s
Cc1ccc(-n2c(N3CCC(C(=O)NCC4CC4)CC3)nc3ccsc3c2=O)cc1 | 808 s
N#Cc1cccc(-c2cn3c(n2)N(C(=O)c2ccccn2)CCC3)c1 | 656 s
O=C(CN1c2ccc(F)cc2-c2ccccc2S1(=O)=O)N1CCCCC1 | 915 s
COc1ccc(NC(=O)N2C[C@@H](F)C[C@H]2C(=O)N2CCCCC2)cc1 | 664 s
CC(C)n1c(=O)oc2cc(-c3noc(-c4ccccc4Br)n3)ccc21 | 1220 s
CCOC(=O)C1=C(CN(C)c2ccccc2)NC(=O)NC1c1ccc(C)cc1 (stereo not drawn) | 1020 s
Clc1ccc(-c2csc(N3CCN(c4nc(-c5ccccc5)cs4)CC3)n2)cc1 | 739 s
CC1CCN(C(=O)C2=NN(Cc3cccc(F)c3)c3ccccc3S2(=O)=O)CC1 | 1010 s
COc1ccc(C)cc1NC(=O)N1CCN(Cc2nc3cc(C)ccc3o2)CC1 | 761 s
O=C(NCCCN1CCN(c2ccccc2F)CC1)C1CCCN(c2nc3cccnc3s2)C1 (stereo not drawn) | 652 s
O=C(NCc1cc(F)ccc1F)C1CCN(c2cnc(N3CCCC3)nc2)CC1 | 667 s
Cc1oc(-c2[nH]ncc2C(=O)N2CCCC2)cc1S(=O)(=O)NCc1cc(F)ccc1F | 700 s
O=C(CCC1CCCN(S(=O)(=O)c2ccccc2F)C1)NCc1cccs1 (stereo not drawn) | 908 s
CCn1ccc2cc(S(=O)(=O)N3CCCN(C(=O)NCc4ccco4)CC3)ccc21 | 832 s
NS(=O)(=O)c1nn2cc(-c3ccccc3)nc2s1 | 813 s
O=C(Cc1ccc2c(c1)OCO2)Nc1nc2c(s1)Cc1ccccc1-2 | 878 s
